Source: ChEMBL document CHEMBL5726588, “Chemically modified quinoline and quinolone derivatives useful as CB-1 inverse agonists” (2017)
pEC50: −log10 of the molar value.

Tests used:
Cannabinoid receptor 1 = Cannabinoid receptor 1 (Homo sapiens, UniProt P21554); test: (§1) cAMP Assay : Cells plated the day prior to the assay in clear bottom plates were viewed on an inverse microscope to ensure confluency in the range of 60-75%. The following mixtures and buffer solutions were prepared: (a) Buffer 1: HBSS (Mediatech Cat#21-023-CV) with 5 mM HEPES ([…], Gibco BRL Cat#15630-056) and 0.1% BSA (7.5% stock, Invitrogen Cat#15260-037); (b) Buffer 2: 0.5 mM IBMX (200 mM stock in DMSO, Sigma 15879) in Buffer 1; (c) 1 μM cAMP Standard (50 μM stock, Perkin Elmer Cat# AD0262) diluted in Buffer 2 and serially diluted in Buffer 2, 12 doses @ ½ dilutions resulting in a dose range of 1 μM to 0.5 nM; (d) d2 labelled cAMP (CisBio HTRF Detection Kit Cat #62AM4PEB reconstituted with 6 mL d-H2O) diluted 1/20 with lysis buffer (CisBio HTRF Detection Kit Cat #62AM4PEB); (e) anti-cAMP (CisBio HTRF Detection Kit Cat # 62AM4PEB reconstituted with 5 mL d-H2O) diluted 1/20 with lysis buffer (CisBio HTRF Detection Kit Cat #62AM4PEB); and (f) Forskolin (Sigma Cat# F6886, 10 mM in DMSO) diluted first in DMSO to 1 mM and then to 1.5 μM in Buffer 2.
Cannabinoid receptor 2 = Cannabinoid receptor 2 (Homo sapiens, UniProt P34972); test: as §1
Cannabinoid receptor 2, sequence (P34972 whole entry): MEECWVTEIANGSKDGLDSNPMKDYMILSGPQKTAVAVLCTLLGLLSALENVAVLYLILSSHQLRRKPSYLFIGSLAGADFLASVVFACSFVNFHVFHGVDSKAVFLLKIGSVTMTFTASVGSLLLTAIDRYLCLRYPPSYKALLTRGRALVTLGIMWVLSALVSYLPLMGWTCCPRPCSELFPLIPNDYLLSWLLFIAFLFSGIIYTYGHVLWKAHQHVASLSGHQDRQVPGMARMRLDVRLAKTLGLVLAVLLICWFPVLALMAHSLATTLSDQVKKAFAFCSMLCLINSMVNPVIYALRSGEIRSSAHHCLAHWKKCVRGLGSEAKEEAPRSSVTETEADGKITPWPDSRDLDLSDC

Cannabinoid receptor 1, sequence (P21554 whole entry): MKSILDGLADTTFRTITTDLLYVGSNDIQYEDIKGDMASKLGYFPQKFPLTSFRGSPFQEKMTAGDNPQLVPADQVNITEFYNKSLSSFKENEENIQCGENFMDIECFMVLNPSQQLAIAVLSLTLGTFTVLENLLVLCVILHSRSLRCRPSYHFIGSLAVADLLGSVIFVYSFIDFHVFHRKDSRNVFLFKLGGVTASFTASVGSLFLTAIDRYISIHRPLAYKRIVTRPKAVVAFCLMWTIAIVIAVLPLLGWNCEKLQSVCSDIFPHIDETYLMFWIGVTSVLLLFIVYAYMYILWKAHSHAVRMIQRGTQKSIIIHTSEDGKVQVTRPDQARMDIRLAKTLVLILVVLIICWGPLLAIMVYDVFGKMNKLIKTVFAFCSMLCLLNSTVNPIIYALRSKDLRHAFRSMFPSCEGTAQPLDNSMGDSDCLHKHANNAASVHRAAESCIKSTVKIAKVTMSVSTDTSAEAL

pEC50 (Cannabinoid receptor 1)	pEC50 (Cannabinoid receptor 2)	Structure (SMILES)
6.32	5.25	COCCOCCOCCOCCOCCOCCOCCOc1cc(NC2CCN(S(=O)(=O)C(F)(F)F)CC2)c2cc(C(c3ccc(Cl)cc3)c3ccc(Cl)cc3)ccc2n1
7.48	5.90	NNC(=O)CCOCCOCCOCCOCCOCCOCCOCCOCCOCCNC(=O)CCCCCOc1cc(NC2CCN(S(=O)(=O)C(F)(F)F)CC2)c2cc(C(c3ccc(Cl)cc3)c3ccc(Cl)cc3)ccc2n1
7.44	5.37	NCCOCCOCCOCCOCCOCCOCCOCCOCCOCCOCCOCCOc1cc(NC2CCN(S(=O)(=O)C(F)(F)F)CC2)c2cc(C(c3ccc(Cl)cc3)c3ccc(Cl)cc3)ccc2n1
7.17	5.72	O=S(=O)(N1CCC(Nc2ccnc3c(OCCOCCOCCOCCOCCOCCOCCOCCOCCOCCO)cc(C(c4ccc(Cl)cc4)c4ccc(Cl)cc4)cc23)CC1)C(F)(F)F
5.74	< 5.00	CC(C)(C)OC(=O)NCCOCCOCCOCCOCCOCCOCCOCCOCCOCCOCCOCCOc1cc(NC2CCN(S(=O)(=O)C(F)(F)F)CC2)c2cc(C(c3ccc(Cl)cc3)c3ccc(Cl)cc3)ccc2n1

The next lines start with the compound.

Structure (SMILES)	pEC50 (Cannabinoid receptor 1)	pEC50 (Cannabinoid receptor 2)
COCCOCCOCCOCCOc1cc(NC2CCN(S(=O)(=O)C(F)(F)F)CC2)c2cc(C(c3ccc(Cl)cc3)c3ccc(Cl)cc3)ccc2n1	7.25	5.13
COCCOCCOCCOCCn1c(=O)c(N2CCN(c3ccccc3)CC2)cc2cc(C(c3ccc(Cl)cc3)c3ccc(Cl)cc3)ccc21	6.46	5.26
COCCOCCOCCOCCOCCOCCOCCn1c(=O)cc(NC2CCN(S(=O)(=O)C(F)(F)F)CC2)c2cc(C(c3ccc(Cl)cc3)c3ccc(Cl)cc3)ccc21	5.31	< 5.00
CC(C)(C)OC(=O)CCOCCOCCOCCOCCOCCOCCOCCOCCOCCOCCOCCOCCOc1cc(C(c2ccc(Cl)cc2)c2ccc(Cl)cc2)cc2c(NC3CCN(S(=O)(=O)C(F)(F)F)CC3)ccnc12	6.34	5.65
